Results on 4 molecules are retold here after patent US20210115104A1, “AMYLIN ANALOGUES” (Zealand Pharma A/S, priority 2015, published 2021).

A short description of data set [1]: Assessment of chemical stability (RP-HPLC normalized purity). The data set is classed as physicochemical. The note with it: for Normalized purity after 7 days, 40° C., pH 4: pH 4, 0.2 mg/ml; for Normalized purity after 7 days, 40° C., pH 4 / Normalized purity after 7 days, 40° C., pH 6 / Normalized purity after 7 days, 40° C., pH 7.5 / Normalized purity after 7 days, 40° C., pH 9: Table 1; for Normalized purity after 7 days, 40° C., pH 6: pH 6, 0.2 mg/ml; for Normalized purity after 7 days, 40° C., pH 7.5: pH 7.5, 0.2 mg/ml; for Normalized purity after 7 days, 40° C., pH 9: pH 9, 0.2 mg/ml; for Normalized purity pH 4 (Table 5): pH 4, repeat of Example 6 for pairs with/without Asn-Asn at 21-22; for Normalized purity pH 6 (Table 5): pH 6, repeat of Example 6 for pairs with/without Asn-Asn at 21-22; for Normalized purity pH 7.5 (Table 5): pH 7.5, repeat of Example 6 for pairs with/without Asn-Asn at 21-22; for Normalized purity pH 9 (Table 5): pH 9, repeat of Example 6 for pairs with/without Asn-Asn at 21-22. In a few lines:
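Peptides at 0.2 mg/ml in water adjusted to pH 4, 6, 7.5 or 9, incubated at 40° C for 7 days. Main-peak area-% by RP-HPLC (C8 ammonium formate or C18 TFA gradient, UV 220 nm), normalized to T=0 as 100.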

Data set [2] in a line: Pharmacokinetic (PK) profiling in rats. Further details: CI/F (apparent clearance values): unit not given here. To be noted: Sprague Dawley male rats, single sc 30 nmol/kg; for half-life: rat, plasma, read-out: Plasma terminal elimination half-life t1/2 (converted). The data set is classed as in vivo, rat. In a few lines:
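Male Sprague Dawley rats received a single sc dose of 30 nmol/kg in mannitol-containing histidine buffer (pH 7.0), with tail-vein sampling before dosing and at 24–168 hours. Plasma was ethanol-precipitated and assayed by LC-MS/MS. Non-compartmental analysis of mean concentrations gave t1/2 as ln(2)/λz and CL/F as dose/AUCinf.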

*1 amine or outer side, *2 acyl side, *3 side chain or, on linkers, in order; H or OH if unused. Where a SMILES comes first, the peptide text is derived from it. Bridges are numbered along the chain shown (N, C = ends). [ ]: non-standard residue; d: D form. The star is where a group is joined. C20 diacid = O=C(O)CCCCCCCCCCCCCCCCCCC(=O)*; γGlu = O=C(O)[C@H](CCC(=O)[*:2])N[*:1]; Hyp = O=C(O)[C@@H]1C[C@@H](O)CN1; NMeI = CC[C@H](C)[C@H](NC)C(=O)O; Aad = N[C@@H](CCCC(=O)O)C(=O)O; Sar = CNCC(=O)O

Take `CC[C@H](C)[C@@H](C(=O)N[C@@H](CC(C)C)C(=O)N[C@@H](CO)C(=O)N[C@@H](CO)C(=O)N[C@H](C(=O)N[C@@H](CCC(=O)O)C(=O)N[C@H](C(=O)NCC(=O)N[C@@H](CO)C(=O)N[C@@H](CC(N)=O)C(=O)N[C@H](C(=O)N1C[C@H](O)C[C@H]1C(N)=O)[C@@H](C)O)C(C)C)[C@@H](C)O)N(C)C(=O)[C@H](C)NC(=O)CN(C)C(=O)[C@H](Cc1ccccc1)NC(=O)[C@H](CO)NC(=O)[C@H](CO)NC(=O)[C@H](CCCNC(=N)N)NC(=O)[C@H](CCC(N)=O)NC(=O)[C@H](CC(C)C)NC(=O)[C@H](Cc1ccccc1)NC(=O)[C@H](CC(=O)O)NC(=O)[C@H](C)NC(=O)[C@H](CC(C)C)NC(=O)[C@H](CCCNC(=N)N)NC(=O)[C@H](CCC(N)=O)NC(=O)[C@@H](NC(=O)[C@H](C)NC(=O)[C@@H]1CSSC[C@H](NC(=O)[C@H](CCCNC(=N)N)NC(=O)CC[C@H](NC(=O)CCCCCCCCCCCCCCCCCCC(=O)O)C(=O)O)C(=O)N[C@@H](CC(N)=O)C(=O)N[C@@H]([C@@H](C)O)C(=O)N[C@@H](C)C(=O)N[C@@H]([C@@H](C)O)C(=O)N1)[C@@H](C)O` [Compound 49, [19CD]-isoGlu-R-C( )-NTAT-C( )-ATQRLADFLQRSSF-Gly(Me)-A-Ile(Me)-LSSTEVGSNT-Hyp-NH2] ({C20 diacid-γGlu}-RCNTATCATQRLADFLQRSSF[Sar]A[NMeI]LSSTEVGSNT[Hyp]-NH2; disulfide 2-7): in data set [1], the “Normalized purity after 7 days, 40° C., pH 4” value was “A (A = >90%)”; the “Normalized purity after 7 days, 40° C., pH 6” value is “A (A = >90%)”; the “Normalized purity after 7 days, 40° C., pH 7.5” value is on record as “A (A = >90%)”; the “Normalized purity after 7 days, 40° C., pH 9” value is reported as “B (B = 70-90%)”. Also, in data set [2], the “CI/F (apparent clearance values)” value is reported as 0.00406 and the half-life is 36.7 h.

With `CC[C@H](C)[C@@H](C(=O)N[C@@H](CC(C)C)C(=O)N[C@@H](CO)C(=O)N[C@@H](CO)C(=O)N[C@H](C(=O)N[C@@H](CCC(=O)O)C(=O)N[C@H](C(=O)NCC(=O)N[C@@H](CO)C(=O)N[C@@H](CC(N)=O)C(=O)N[C@H](C(=O)N1C[C@H](O)C[C@H]1C(N)=O)[C@@H](C)O)C(C)C)[C@@H](C)O)N(C)C(=O)[C@H](C)NC(=O)CN(C)C(=O)[C@H](Cc1ccccc1)NC(=O)[C@H](CO)NC(=O)[C@H](CO)NC(=O)[C@H](CCCNC(=N)N)NC(=O)[C@H](CCC(N)=O)NC(=O)[C@H](CC(C)C)NC(=O)[C@H](Cc1ccccc1)NC(=O)[C@H](CCCC(=O)O)NC(=O)[C@H](C)NC(=O)[C@H](CC(C)C)NC(=O)[C@H](CCCNC(=N)N)NC(=O)[C@H](CCC(=O)O)NC(=O)[C@@H](NC(=O)[C@H](C)NC(=O)[C@@H]1CSSC[C@H](NC(=O)[C@H](CCCNC(=N)N)NC(=O)CC[C@H](NC(=O)CCCCCCCCCCCCCCCCCCC(=O)O)C(=O)O)C(=O)NCC(=O)N[C@@H]([C@@H](C)O)C(=O)N[C@@H](C)C(=O)N[C@@H]([C@@H](C)O)C(=O)N1)[C@@H](C)O` [Compound 55, [19CD]-isoGlu-R-C( )-GTAT-C( )-ATERLA-Aad-FLQRSSF-Gly(Me)-A-Ile(Me)-LSSTEVGSNT-Hyp-NH2] ({C20 diacid-γGlu}-RCGTATCATERLA[Aad]FLQRSSF[Sar]A[NMeI]LSSTEVGSNT[Hyp]-NH2; disulfide 2-7), in data set [1], the “Normalized purity after 7 days, 40° C., pH 4” value is “A (A = >90%)”; the “Normalized purity pH 4 (Table 5)” value was “A (A = >90%)”; the “Normalized purity after 7 days, 40° C., pH 6” value was “A (A = >90%)”; the “Normalized purity pH 6 (Table 5)” value was “A (A = >90%)”. Further, in data set [1], the “Normalized purity after 7 days, 40° C., pH 7.5” value was “A (A = >90%)”; the “Normalized purity pH 7.5 (Table 5)” value is “A (A = >90%)”; the “Normalized purity after 7 days, 40° C., pH 9” value is listed as “B (B = 70-90%)”; the “Normalized purity pH 9 (Table 5)” value is on record as “B (B = 70-90%)”. Moreover, in data set [2], the “CI/F (apparent clearance values)” value is recorded as 0.0045 and the half-life is 26.2 h.

As to `CC[C@H](C)[C@@H](C(=O)N[C@@H](CC(C)C)C(=O)N[C@@H](CO)C(=O)N[C@@H](CO)C(=O)N[C@H](C(=O)N[C@@H](CCC(=O)O)C(=O)N[C@H](C(=O)NCC(=O)N[C@@H](CO)C(=O)N[C@@H](CC(N)=O)C(=O)N[C@H](C(=O)N1C[C@H](O)C[C@H]1C(N)=O)[C@@H](C)O)C(C)C)[C@@H](C)O)N(C)C(=O)[C@H](C)NC(=O)CN(C)C(=O)[C@H](Cc1ccccc1)NC(=O)[C@H](CO)NC(=O)[C@H](CO)NC(=O)[C@H](CCCNC(=N)N)NC(=O)[C@H](CCC(N)=O)NC(=O)[C@H](CC(C)C)NC(=O)[C@H](Cc1ccccc1)NC(=O)[C@H](Cc1c[nH]cn1)NC(=O)[C@H](C)NC(=O)[C@H](CC(C)C)NC(=O)[C@H](CCCNC(=N)N)NC(=O)[C@H](CCC(=O)O)NC(=O)[C@@H](NC(=O)[C@H](C)NC(=O)[C@@H]1CSSC[C@H](NC(=O)[C@H](CCCNC(=N)N)NC(=O)CC[C@H](NC(=O)CCCCCCCCCCCCCCCCCCC(=O)O)C(=O)O)C(=O)N[C@@H](CCC(N)=O)C(=O)N[C@@H]([C@@H](C)O)C(=O)N[C@@H](C)C(=O)N[C@@H]([C@@H](C)O)C(=O)N1)[C@@H](C)O` [Compound 57, [19CD]-isoGlu-R-C( )-QTAT-C( )-ATERLAHFLQRSSF-Gly(Me)-A-Ile(Me)-LSSTEVGSNT-Hyp-NH2] ({C20 diacid-γGlu}-RCQTATCATERLAHFLQRSSF[Sar]A[NMeI]LSSTEVGSNT[Hyp]-NH2; disulfide 2-7), in data set [1], the “Normalized purity after 7 days, 40° C., pH 4” value is given as “A (A = >90%)”; the “Normalized purity pH 4 (Table 5)” value was “A (A = >90%)”; the “Normalized purity after 7 days, 40° C., pH 6” value is “A (A = >90%)”; the “Normalized purity pH 6 (Table 5)” value was “A (A = >90%)”. In data set [1], the “Normalized purity after 7 days, 40° C., pH 7.5” value is “A (A = >90%)”; the “Normalized purity pH 7.5 (Table 5)” value is on record as “A (A = >90%)”; the “Normalized purity after 7 days, 40° C., pH 9” value is on record as “A (A = >90%)”; the “Normalized purity pH 9 (Table 5)” value is reported as “B (B = 70-90%)”. Further, in data set [2], the “CI/F (apparent clearance values)” value stood at 0.0078 and the half-life was 17.9 h.

On to `CC[C@H](C)[C@@H](C(=O)N[C@@H](CC(C)C)C(=O)N[C@@H](CO)C(=O)N[C@@H](CO)C(=O)N[C@H](C(=O)N[C@@H](CCC(=O)O)C(=O)N[C@H](C(=O)NCC(=O)N[C@@H](CO)C(=O)NCC(=O)N[C@H](C(=O)N1C[C@H](O)C[C@H]1C(N)=O)[C@@H](C)O)C(C)C)[C@@H](C)O)N(C)C(=O)[C@H](C)NC(=O)CN(C)C(=O)[C@H](Cc1ccccc1)NC(=O)[C@H](CO)NC(=O)[C@H](CO)NC(=O)[C@H](CCCNC(=N)N)NC(=O)[C@H](CCC(N)=O)NC(=O)[C@H](CC(C)C)NC(=O)[C@H](Cc1ccccc1)NC(=O)[C@H](Cc1c[nH]cn1)NC(=O)[C@H](C)NC(=O)[C@H](CC(C)C)NC(=O)[C@H](CCCNC(=N)N)NC(=O)[C@H](CCC(N)=O)NC(=O)[C@@H](NC(=O)[C@H](C)NC(=O)[C@@H]1CSSC[C@H](NC(=O)[C@H](CCCNC(=N)N)NC(=O)CC[C@H](NC(=O)CCCCCCCCCCCCCCCCCCC(=O)O)C(=O)O)C(=O)N[C@@H](CC(N)=O)C(=O)N[C@@H]([C@@H](C)O)C(=O)N[C@@H](C)C(=O)N[C@@H]([C@@H](C)O)C(=O)N1)[C@@H](C)O` [Compound 71, [19CD]-isoGlu-R-C( )-NTAT-C( )-ATQRLAHFLQRSSF-Gly(Me)-A-Ile(Me)-LSSTEVGSGT-Hyp-NH2] ({C20 diacid-γGlu}-RCNTATCATQRLAHFLQRSSF[Sar]A[NMeI]LSSTEVGSGT[Hyp]-NH2; disulfide 2-7), for which, in data set [1], the “Normalized purity after 7 days, 40° C., pH 4” value is “A (A = >90%)”; the “Normalized purity after 7 days, 40° C., pH 6” value is “A (A = >90%)”; the “Normalized purity after 7 days, 40° C., pH 7.5” value is on record as “A (A = >90%)”; the “Normalized purity after 7 days, 40° C., pH 9” value is listed as “B (B = 70-90%)”. For the same molecule, in data set [2], the “CI/F (apparent clearance values)” value worked out at 0.0146.
